Results on 2 molecules are retold here after patent EP0441252B1, “Alkaline phosphatase enzymes having improved specific activity for use in indicator reagents” (ABBOTT LABORATORIES, priority 1990, dated 1991).

Common to all, as to test: Kinetic constants (Km) of purified alkaline phosphatase
The target in data set [1] is E. coli alkaline phosphatase variant pMA115, Asp^101 > Ser (Escherichia coli, UniProt P00634, D123S, form not given). Conditions: Table 1; substrate not given.
Data set [2] addresses E. coli alkaline phosphatase variant pMA116, Lys^328 > Arg / Val^99 > Ala (Escherichia coli, UniProt P00634, form not given/K350R/V121A). Conditions: Table 1; substrate not given.
The test system of data set [3] is O=[N+]([O-])c1ccc(OP(=O)(O)O)cc1. The format is biochemical, E. coli. The settings on record: other: Table 1; substrate not given; pH 8.0; 25.0 °C.

Chain of E. coli alkaline phosphatase variant pMA115, Asp^101 > Ser (P00634 22-471 D123S): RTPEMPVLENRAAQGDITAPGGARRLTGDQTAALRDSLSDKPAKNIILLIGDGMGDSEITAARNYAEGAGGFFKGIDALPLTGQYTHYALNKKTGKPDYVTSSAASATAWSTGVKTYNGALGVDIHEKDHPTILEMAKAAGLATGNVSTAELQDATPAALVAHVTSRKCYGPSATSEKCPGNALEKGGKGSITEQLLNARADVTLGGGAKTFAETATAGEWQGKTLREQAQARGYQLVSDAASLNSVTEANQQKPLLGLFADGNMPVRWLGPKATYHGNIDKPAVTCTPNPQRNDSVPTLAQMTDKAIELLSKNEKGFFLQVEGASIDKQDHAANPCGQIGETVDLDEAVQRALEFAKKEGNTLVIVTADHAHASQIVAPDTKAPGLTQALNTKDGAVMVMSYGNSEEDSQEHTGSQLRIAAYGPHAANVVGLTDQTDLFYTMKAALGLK
Chain of E. coli alkaline phosphatase variant pMA116, Lys^328 > Arg / Val^99 > Ala (P00634 22-471 K350R/V121A): as the sequence (P00634 22-471 D123S) above, with V100A, S102D, K329R counted along it

What is called Km is the concentration of substrate that gives half-maximal velocity. Regarding `O=[N+]([O-])c1ccc(OP(=O)(O)O)cc1` [pNPP, p-nitrophenyl phosphate], the Km came to 56 µM in data set [1] and 74 µM in data set [2].

For the molecule “E. coli alkaline phosphatase variant pMA110, Val^377 > Ala / Ser^415 > Gly (Escherichia coli K-12; S437G/V399A)”, the Km in data set [3] came out at 23 µM.
